Patent US11419856B2, “Pharmaceutical combinations for use in the treatment of neoplastic diseases” (Basilea Pharmaceutica International AG, priority 2017, dated 2022)

Key:
[1] = system: HCT116; test: Soft agar assay, IC50 of single agents in HCT116; format: cell-based; conditions: Homo sapiens, HCT-116
Method: Example 5: Determination of Drug Interaction in Cell Lines by Soft Agar Assay
The combination of BAL101553 with eribulin was tested in various cell lines by soft agar assay. Table 1 and Table 2 present the results according to coefficient of drug interaction based on colony number (Table 1) and total area of colonies (Table 2). In both cases the coefficient of drug interaction is calculated according to the formula described in Zhao et al., J Intercult Ethnopharmacol. 2014, 3(2): 68-72): (combination/untreated)/[(compound1/untreated)×(compound2/untreated)]

[2] = system: microtubules (soluble vs polymerized tubulin), MDA-MB-231 cells; test: Cellular microtubule destabilization assay and immunoblotting for tubulin; format: cell-based, human; conditions: 2 hours
Method: The following human cell line was used: MDA-MB-231 (ATCC: HTB-26). In addition the following enhanced green fluorescent protein (EGFP)-transfected human cell lines were used: NCI-H460 (ATCC: HTB-177) (H460GFP) and Jurkat (ATCC: TIB-152) (JurkatGFP). NCI-H460 and Jurkat cell lines were cultured in RPMI-1640 tissue culture medium containing 10% (v/v) fetal calf serum, 2 mM glutamine, non-essential amino acids and 50 μg/ml penicillin/streptomycin (Complete medium) (Sigma, Buchs, Switzerland). The MDA-MB-231 cell line was cultured in Dulbecco's Modified Eagle Medium (DMEM) (high glucose) tissue culture medium containing 10% (v/v) fetal calf serum, 1 mM sodium pyruvate and 50 μg/ml penicillin/streptomycin (i.e. Complete Medium) (Sigma, Buchs, Switzerland).
General growth conditions were 37° C. and 7.5% CO2. For the microtubule destabilization assay cell lines were cultured in 5% CO2.
Trypsinized MDA-MB-231 cells (500′000 cells per treatment) were treated in 1 mL medium containing BAL27862 and/or eribulin (Halaven®, Ch.-B. 60363CRN1, Eisai) or appropriate vehicle control (dimethylsulfoxide (DMSO)) for 2 hours in a water bath at 37° C. […]

SMILES | IC50 [1] [nM] | microtubule destabilizing activity (soluble vs particulate tubulin, Western blot) ([2]; single agent 20 and 30 nM (FIG. 5A)) | microtubule destabilizing activity (soluble vs particulate tubulin, Western blot) ([2]; single agent 0.2 nM and 2 nM)
N#CCCNc1nonc1-c1nc2ccccc2n1CC(=O)c1ccc(N)cc1 [BAL27862, 3-(4-{1-[2-(4-Amino-phenyl)-2-oxo-ethyl]-1H-benzoimidazol-2-yl}-furazan-3-ylamino)-propionitrile] | 18 | concentration-dependent but incomplete destabilizing effect | –
C=C1C[C@@H]2CC[C@@]34C[C@H]5O[C@H]6[C@@H](O3)[C@H]3O[C@H](CC[C@@H]3O[C@H]6[C@H]5O4)CC(=O)C[C@@H]3[C@@H](OC)[C@@H](C[C@H](O)CN)O[C@H]3C[C@H]3O[C@@H](CC[C@@H]1O2)C[C@@H](C)C3=C.CS(=O)(=O)O [Eribulin, (2R, 3R, 3aS, 7R, 8aS, 9S, 10aR, 11S, 12R, 13aR, 13bS, 15S, 18S, 21S, 24S, 26R, 28R, 29aS)-2-[(2S)-3-Amino-2-hydroxypropyl]-3-methoxy-26-methyl-20,27-dimethylidenehexacosahydro-11,15:18,21:24,28-triepoxy-7,9-ethano-12,15-methano-9H,15H-furo[3,2-i]furo[2′,3′:5,6]pyrano[4,3-b][1,4]dioxacyclopentacosin-5(4H)-one methanesulfonate (salt)] | 1 | – | only a small increase in soluble tubulin
